# Source: US11241402B2, “Methods of treating liver fibrosis by administering 3-bromopyruvate” (The Johns Hopkins University, priority 2015, dated 2022)
# Entries after “also recorded” stand apart in the source; their conditions may differ.
# Legend:
# activated LX-2 cells [1] = experiment: Metronomic therapy of activated-LX-2 cells: morphology / phenotype; assay type: cell-based, human; details: for change in morphology / phenotype of aLX-2 cells: monotherapy, metronomic: 3-BrPA 25 μM or AICAR 0.5 mM
# Excerpt: LX-2, a human stellate cell line, was a gift of Dr. Scott L. Friedman from the Mount Sinai School of Medicine (New York, N.Y., USA). The LX-2 cells when cultured on plastic are active in fibrogenesis (Gaca et al., 2003), and these activated LX-2 cells were used in most experiments. De-activated (quiescent) LX-2 cells prepared by culturing the LX-2 cells on Matrigel (Gaca et al., 2003; Sohara et al., 2002; Troeger et al., 2012) were used as controls. The activated and de-activated LX-2 cells were then cultured in Dulbecco's Modified Eagle's Medium (DMEM) containing 10% FBS, 0.1% antibiotic (Penicillin-Streptomycin) and 0.1% Fungizone on plastic as described previously (Tang et al., 2003). Rat hepatic stellate cells were
# (§1) To analyze the effect of 3-BrPA on activated-LX-2 cells, the principle of metronomic therapy, a repeated but low, nonlethal dose of 3-BrPA ([…]) was adopted. A known number of cells were plated in 6-well plates, 10 cm petri dishes or chamber slides as required and the culture media was replaced with fresh culture media containing the drug(s) on alternative days. The cells were treated for a period of 13 days for immunofluorescence studies and 6 days for all other studies including biochemical analysis. Monotherapy involved treating the cells with 3-BrPA alone or AICAR (0.5 mM) in DMEM with 2.5% FBS. The concentration of AICAR was chosen based on the prior reports (Lim et al., 2012). Combination therapy involved using half of the dose used for the monotherapy of AICAR and 3-BrPA.
# [2] = tested on: human primary hepatocytes; experiment: Morphology and cell viability of human primary hepatocytes at the metronomic dose; assay type: cell-based
# Procedure: (§2) isolated and cultured as described previously (Anania et al., 1996). Human primary hepatocytes were obtained from Invitrogen and cultured in William's medium (without phenol red) along with plating and maintenance supplements.
# as §1
# activated LX-2 cells [3] = experiment: Gelatin zymography for MMP activity in conditioned medium, verified by immunoblot; assay type: cell-based, human; details: aLX-2 cells, zymogram and immunoblots
# Procedure: as §1
# The level of MMP activity in the conditioned medium of control and treated LX-2 cells and/or rat HSCs was quantified by gelatin zymography. In brief, upon the completion of drug treatment protocol, media from both control and treated cells were removed, cells were rinsed with PBS and replaced with serum-free DMEM media and cultured overnight at 37° C. prior to the collection of media containing secreted proteins for further analysis. […]
# activated LX-2 cells [4] = experiment: Immunofluorescence / immunoblot of profibrogenic markers (α-SMA, CK-18); assay type: cell-based, human; details: aLX-2 cells
# Procedure: as §1
# LX-2 cells were grown in chamber slides in the same media used for culture. […]
# For western blotting, control and treated cells were washed in PBS, lysed in RIPA lysis buffer (Sigma-Aldrich) with a protease inhibitor cocktail and a phosphatase inhibitor cocktails (both from Sigma-Aldrich) at 4° C. using a dounce homogenizer. […] The clear supernatants were collected and the protein concentrations were analyzed using a 2-D Quant protein assay Kit (GE Healthcare) as described (Ganapathy-Kanniappan et al., 2009a). […]
# [5] = tested on: rat hepatic stellate cells; experiment: Fibrotic markers in rat hepatic stellate cells (confocal α-SMA, MMP-9 immunoblot); assay type: cell-based
# Excerpt: as §2
# The level of MMP activity in the conditioned medium of control and treated LX-2 cells and/or rat HSCs was quantified by gelatin zymography. In brief, upon the completion of drug treatment protocol, media from both control and treated cells were removed, cells were rinsed with PBS and replaced with serum-free DMEM media and cultured overnight at 37° C. prior to the collection of media containing secreted proteins for further analysis. The media thus collected were concentrated using a 3000 Da centrifugal filter (Amicon Inc., Pineville, N.C., USA) at 2500 rpm for 30 minutes at 4° C. and then stored at −80° C. until further analysis. Protein (˜10 μg) samples from the conditioned media of control and treated cells were subjected to zymography as described (Kunjithapatham et al., 2014). The MMP activity was visualized as clear bands. The identity of the MMP associated with zymogram signal (activity) was verified by immunoblot analysis.
# activated-LX-2 cells = experiment: Determination of nontoxic maximum tolerated dose (cell viability, Trypan-blue exclusion or intracellular ATP); assay type: cell-based, human; details: maximum dose allowing more than 50% survival; 5-50 μM tested for 24, 48 and 72 hours
# Procedure: To determine the nonlethal, maximum tolerated dose (MTD) of 3-BrPA for activated-LX-2 cells, the cell viability was assessed using either Trypan-blue exclusion or quantification of intracellular ATP level. The later was performed using the Cell-Titer Glo Assay kit (Promega Corp., Madison, Wis.) and the FLUOstar Omega plate reader (BMG Labtech, UK). In brief, cells plated in 96-well flatbottomed opaque plates were treated with different concentrations of 3-BrPA (5 μM, 10 μM, 25 μM and 50 μM) for 24, 48 and 72 hours followed by the quantification of intracellular ATP. The maximum dose of 3-BrPA that allowed more than 50% survival (a concentration <IC50) was selected for further experiments.
# activated LX-2 cells [6] = experiment: Energy metabolism markers (immunofluorescence, immunoblot, lactate secretion); assay type: cell-based, human; details: aLX-2 cells
# Procedure: as §1
# LX-2 cells were grown in chamber slides in the same media used for culture. They were fixed with 4% formaldehyde for 10 minutes, rapidly rehydrated with Phosphate-buffered saline (PBS) and permeabilized with a 0.20% Triton X-100 solution in PBS for imaging of MCT-1, MCT-4 and ATPSE. The cells were incubated with primary antibodies in PBS for 1 hour at room temperature in a humidified chamber. They were then washed and incubated at room temperature with secondary antibody labeled with Texas Red
# For western blotting, control and treated cells were washed in PBS, lysed in RIPA lysis buffer (Sigma-Aldrich) with a protease inhibitor cocktail and a phosphatase inhibitor cocktails (both from Sigma-Aldrich) at 4° C. using a dounce homogenizer. The lysates were centrifuged at 12,000×g for 15 min at 4° C. to remove any cell debris. The clear supernatants were collected and the protein concentrations were analyzed using a 2-D Quant protein assay Kit (GE Healthcare) as described (Ganapathy-Kanniappan et al., 2009a). In brief, protein samples were resolved on a 4-12% Bis-Tris gel by electrophoresis with MOPS buffer or via 12% Bis-Tris gel electrophoresis with MES running buffer (for low molecular weight targets) and blotted onto PVDF membranes (BioRad, Hercules, Calif., USA) followed by immunoblotting with specific antibodies. Immune complexes were visualized by ECL-detection kit (GE Health Care).
# activated LX-2 cells [7] = experiment: Collagen staining (trichrome) and collagen mRNA by qRT-PCR; assay type: cell-based, human; details: aLX-2 cells
# Procedure: Gene expression analysis was performed by using qRT-PCR with a sequence detection system (ABI 7900HT; Applied Biosystems, Bedford, Mass., USA). The total RNA was extracted and the cDNA thus synthesized were subjected to qRT-PCR analysis using SYBR Green PCR Kit (Applied Biosystems) for genes associated with invasiveness and motility like Vimentin (VIM), Cadherin-12 (CDH12), Snail (SNAI1), Transgelin (TGN) (31-33) and TaqMan PCR Kit for Coll1α (Mm 00801666_g1). The primers used for respective gene amplification were synthesized by RealTimePrimers.com (Elkins Park, Pa., USA) or Life Technologies (Coll1α): […]
# Tissue sections were deparaffinized in xylene followed by rehydration through graded series of alcohol followed by staining for collagen using Masson's Trichrome stain (Sigma Aldrich, St. Louis, Mo.) or Sirius Red stain (PolySciences. Inc Warrington, Pa.). For in vitro studies, the LX-2 cells were grown in chamber slides containing appropriate growth medium. They were fixed with 4% formaldehyde for 10 minutes, rapidly rehydrated with Phosphate-buffered saline (PBS), following which, the staining was performed.
Compound,change in morphology / phenotype of aLX-2 cells (activated LX-2 cells [1]),"sensitivity / cell viability / toxicity, human primary hepatocytes ([2]; 3-BrPA 25 μM, in vitro)",morphological change of human primary hepatocytes ([2]; same metronomic dose (25 μM)),"secretion of MMPs (MMP-2, MMP-9) (activated LX-2 cells [3])",level of CK-18 (activated LX-2 cells [4]; immunofluorescence),level of α-SMA (activated LX-2 cells [4]; immunofluorescence and immunoblot),"stability of phenotypic changes after withdrawal of the drug (activated LX-2 cells [1]; aLX-2 cells, 6 days post-treatment)","change in morphology of aLX-2 cells in the presence of AICAR (activated LX-2 cells [1]; combination of 3-BrPA and AICAR, half of the monotherapy doses)",α-SMA in rat hepatic stellate cells ([5]; confocal microscopic images),secretion of MMP-9 in rat hepatic stellate cells ([5]; immunoblot),"MTD (nonlethal, maximum tolerated dose) in aLX-2 cells (activated-LX-2 cells)",expression level of lactate transporter MCT-4 (activated LX-2 cells [6]),expression of ATPSE (F1-F0 ATPase) (activated LX-2 cells [6]),expression of MCT-1 (activated LX-2 cells [6]),level of lactate secretion (activated LX-2 cells [6]),expression level of lactate dehydrogenase (LDH) (activated LX-2 cells [6]; immunoblot),toxicity to mouse hepatocytes (mouse hepatocytes),α1 (I) collagen mRNA (activated LX-2 cells [7]),collagen (trichrome staining) (activated LX-2 cells [7]; text says liver collagen)
"NC(=O)c1ncn([C@@H]2O[C@H](CO)[C@@H](O)[C@H]2O)c1N [AICAR, reference compound]",did not induce any change in morphology,,,,,,,,,,,,,,,,,,
"O=C(O)C(=O)CBr [3-BrPA, 3-bromopyruvate]","induced changes in phenotype including an elongated, spindle-shaped morphology",not sensitive; also recorded: not toxic; also recorded: remained unaffected,did not under go any morphological change,elevated,prominent decrease,reduced,"stable, even after withdrawal of the drug",promoted the changes even in the presence of AICAR,decrease,increase,25 µM,increased,significantly downregulated,unaffected,increased,increased,not toxic,decreased,decreased
